Measured values taken from patent US20130123184A1, “METHODS FOR […] OF HUMAN FETAL HEMOGLOBIN” (National Institutes of Health, priority 2007, published 2013).
Entries after “also recorded” stand apart in the source; their conditions may differ.

How the values were obtained:
[1] = tested on: human γ globin gene expression; experiment: erythroid colony forming unit (CFUe) assay, real-time PCR of human γ globin gene expression; format: cell-based, mouse
Procedure: (§1) Experiments were performed with mice that are transgenic for a yeast artificial chromosome that contains the full human β-globin locus. […] However mice do have the appropriate transcription factors to interpret and express the human globin locus.
(§2) To determine if romidepsin alters human globin expression erythroid colony forming unit assays were conducted. This involved extracting fetal liver cells from the developing embryo, at a time when both γ and β globin are expressed. Cells were then cultured in a semi-solid media (methyl-cellulose) containing growth factors (SCF and Epo) with or without romidepsin. We harvested CFUe colonies at 2 days of culture (a pool of 10 from each treatment, each treatment was performed in duplicate) and performed an immediate cell lysis and cDNA amplification. The cDNA was then subjected to real-time PCR to determine levels of mouse α, human γ and human β globin gene expression. The cells were treated with a range of romidepsin concentrations from 0.185 nM to 18.5 nM, and the colony assay was performed on 6 separate occasions.
(§3) The results (0.185 nM or 1.85 nM romidepsin) are presented in FIG. 1 relative to mouse α levels, and relative to the control performed in each particular experiment. […] When the 0.185 nM and 1.85 nM data are combined there is a 130-fold increase in γ globin expression, as compared to mouse α globin expression and untreated cells.

[2] = tested on: human β globin gene expression; experiment: erythroid colony forming unit (CFUe) assay, real-time PCR of human β globin gene expression; format: cell-based; conditions: 0.185 nM or 1.85 nM; relative to mouse α levels and control
Procedure: as §1, §2, §3

[3] = tested on: fetal hemoglobin; experiment: circulating fetal hemoglobin levels in phase II clinical trial patients (CTCL and PTCL); format: in vivo, human; conditions: at least two months, 44 patients evaluated
Procedure: As part of an ongoing phase II clinical trial into the effects of romidepsin in patients with cutaneous (CTCL) and peripheral (PTCL) T-cell lymphoma, the levels of circulating fetal hemoglobin were determined. From a total of 53 patients in the trial, 44 were evaluated. Romidepsin was administered as a 4 hour infusion on days 1, 8, and 15 of a 28 day cycle with a dose of 14 mg/m^2. Fetal hemoglobin levels were measured during at least two months of treatment with romidepsin. Fetal hemoglobin levels were expressed first as a percent of the patient's total hemoglobin and then corrected (by multiplying the total hemoglobin by percent fetal hemoglobin).

[4] = tested on: fetal liver cells; experiment: toxicity analysis of CFUe colonies (number and size of colonies); format: cell-based, mouse
Procedure: as §2
Each colony was also analyzed for toxicity effects. […] Thus globin analysis at this dose is not presented.

[5] = fold increase in fetal hemoglobin 0-2, 14 mg/m^2 4 hour infusion days 1, 8, 15 of 28 day cycle
[6] = fold increase in fetal hemoglobin 2-5, 14 mg/m^2
[7] = fold increase in fetal hemoglobin 5-10, 14 mg/m^2
[8] = fold increase in fetal hemoglobin 10-20, 14 mg/m^2
[9] = fold increase in fetal hemoglobin >2, 14 mg/m^2
[10] = fold increase in fetal hemoglobin >5, 14 mg/m^2
[11] = fold increase in fetal hemoglobin >10, 14 mg/m^2
[12] = fold increase in fetal hemoglobin >20, 14 mg/m^2

## C/C=C1\NC(=O)[C@H]2CSSCC/C=C/[C@H](CC(=O)N[C@H](C(C)C)C(=O)N2)OC(=O)[C@H](C(C)C)NC1=O [romidepsin, (1S,4S,10S,16E,21R)-7-[(2Z)-ethylidene]-4,21-diisopropyl-2-oxa-12,13-dithia-5,8,20,23-tetraazabicyclo[8.7.6]tricos-16-ene-3,6,9,19,22-pentanone]
[1]; 0.185 nM and 1.85 nM data combined, compared to mouse α globin expression and untreated cells, transgenic fetal liver CFUe colonies, 2 days of culture, mean±SEM, n=6
  fold increase in γ globin expression: 130 fold
[1]; 0.185 nM or 1.85 nM, relative to mouse α levels and control
  γ globin gene expression following romidepsin treatment: increase; also recorded: up-regulation
[1]; highest doses of romidepsin
  expression of human globin at the highest doses: lower
[2]
  β globin gene expression following romidepsin treatment: not affected; also recorded: no change
[3]; [5]
  % of patients: 23%
  Number of patients: 10
[3]; [6]
  % of patients: 23%
  Number of patients: 10
[3]; [7]
  % of patients: 20%
  Number of patients: 9
[3]; [8]
  % of patients: 23%
  Number of patients: 10
[3]; [9]
  % of patients: 77%
  Number of patients: 34
[3]; [10]
  % of patients: 55%
  Number of patients: 24
[3]; [11]
  % of patients: 34%
  Number of patients: 15
[3]; [12]
  % of patients: 11%
  Number of patients: 5
[4]; 0.185 nM and 1.85 nM
  total number of colonies or size of CFUe: no differences
[4]; 18.5 nM, accurate data not gathered
  toxicity to the fetal liver cells: toxic
